Values of other authors in patent US10292931B2, “Stable liquid pharmaceutical composition based on trazodone” (AZIENDE CHIMICHE RIUNITE ANGELINI FRANCESCO A.C.R.A.F. …, priority 2007, dated 2019).
Where a name gives a salt, the structure may show the parent alone. Read-outs that look alike come from different tables or passages of the source.

Experiments:
[1] = room temperature
[2] = 1% (w/v) aqueous solution

- solubility ([1]; 95% ethanol): 1.6 g/100 ml
- solubility ([1]; benzene): practically insoluble
- solubility ([1]; chloroform): 3.6 g/100 ml
- solubility ([1]; ethyl ether): practically insoluble
- solubility ([1]; methanol): 2.5 g/100 ml
- solubility ([1]; octanol): less than 0.1 g/100 ml
- solubility ([1]; olive oil): less than 0.1 g/100 ml
- solubility ([1]; water): 1.8 g/100 ml
- pH of aqueous solution [2]: approx. 3.90
SMILES: O=c1n(CCCN2CCN(c3cccc(Cl)c3)CC2)nc2ccccn12 [trazodone hydrochloride]
